Measurements reported in patent publication US20250263396A1, “CRYSTALLINE FORMS OF 3-(5-(2-HYDROXY-2- METHYLPROPOXY)-6-METHYPYRAZIN-2-YL)-1H-INDOLE-7-CARBONITRILE” (NIDO BIOSCIENCES, INC., priority 2024, published 2025).
Values after ≈ are worked out from the molar mass of the structure shown.

Legend:
[1] = physchem; settings: 37 °C, thermodynamic from solid
Experimental: Non-milled Form P (10 mg, purity 100%) was weighed into a 20 mL glass vial. 5 mL of solubility medium was added. Obtained suspensions were stirred at 37° C. at 400 rpm and sampled at 24 hours. The samples were centrifuged at 37 C at 14,000 rpm for 5 min. Supernatants were analyzed by HPLC and pH meter for solubility and pH value, respectively. Residual solids (wet cakes) from the 24 hours samples were also characterized by XRPD to determine physical form.

[2] = Equilibration with solvents; assay type: physicochemical
Experimental: Obtained suspensions were filtered through a 0.45 μm nylon membrane filter by centrifugation at 14,000 rpm. Solid parts (wet cakes) were investigated by XRPD. For samples with different XRPD patterns, additional analysis including DSC, TGA, ^1H-NMR were performed.
(§1) Obtained suspensions were filtered through a 0.45 μm nylon membrane filter by centrifugation at 14,000 rpm.
as §1

[3] = Dry grinding simulation experiments; assay type: physicochemical; settings: ground manually with mortar and pestle
Experimental: About 10 mg of Form P was ground manually with a mortar and a pestle for 1, 3 and 5 minutes.
About 10 mg of Form C was ground manually with a mortar and a pestle for 5 minutes.

With Cc1nc(-c2c[nH]c3c(C#N)cccc23)cnc1OCC(C)(C)O [Form P, 3-(5-(2-hydroxy-2-methylpropoxy)-6-methylpyrazin-2-yl)-1H-indole-7-carbonitrile] the solubility at 24 h ([1]; pH 1.2, simulated gastric fluid) was 7.2 µg/mL (≈ 22.3 µM), the solubility at 24 h ([1]; pH 1.6, fassgf or other biorelevant) was 5.1 µg/mL (≈ 15.8 µM) and the solubility at 24 h ([1]; pH 3, aqueous buffer) was 2.9 µg/mL (≈ 9 µM). It also gave a solubility at 24 h ([1]; pH 5, aqueous buffer) of 2.3 µg/mL (≈ 7.13 µM), a solubility at 24 h ([1]; pH 5, fessif) of 111 µg/mL (≈ 343 µM) and a solubility at 24 h ([1]; pH 6.5, fassif) of 20.9 µg/mL (≈ 64.8 µM). The solubility at 24 h ([1]; pH 7, aqueous buffer) was 2.4 µg/mL (≈ 7.44 µM), the solubility at 24 h ([1]; water) was 2.7 µg/mL (≈ 8.38 µM) and the XRPD after equilibration ([2]; 2-MeTHF, 25° C., 2 weeks) was “Form P”. The XRPD after equilibration ([2]; 2-MeTHF, 50° C., 1 week) was “Form P”, the XRPD after equilibration ([2]; 2-MeTHF/heptane (v:v = 1:1), 25° C., 2 weeks) was “Form P” and the XRPD after equilibration ([2]; 2-MeTHF/heptane (v:v = 1:1), 50° C., 1 week) was “Form P”. The XRPD after equilibration ([2]; 2-MeTHF/heptane (v:v = 3:1), 25° C., 2 weeks) was “Form P”, the XRPD after equilibration ([2]; 2-MeTHF/heptane (v:v = 3:1), 50° C., 1 week) was “Form P” and the XRPD after equilibration ([2]; 2-Propanol, 25° C., 2 weeks) was “Form P”. For the same compound, the XRPD after equilibration ([2]; 2-Propanol, 50° C., 1 week) was “Form P”, the XRPD after equilibration ([2]; Acetone, 25° C., 2 weeks) was “Form P” and the XRPD after equilibration ([2]; Acetone, 50° C., 1 week) was “Form P”. For the same compound, the XRPD after equilibration ([2]; Acetone/water (v:v = 30:70) a.w. = 0.92, 50° C., 1 week) was “Form P”, the XRPD after equilibration ([2]; Acetonitrile, 25° C., 2 weeks) was “Form P” and the XRPD after equilibration ([2]; Acetonitrile, 50° C., 1 week) was “Form P”. For the same compound, the XRPD after equilibration ([2]; DMSO, 25° C., 2 weeks) was “Form U”, the “Comments (appearance)” value ([2]; DMSO, 50° C., 1 week, (500 mg/mL)) was “Clear solution” and the XRPD after equilibration ([2]; DMSO/water (v:v = 40:60) a.w. = 0.77, 50° C., 1 week) was “Form P”. The XRPD after equilibration ([2]; Ethanol, 25° C., 2 weeks) was “Form P”, the XRPD after equilibration ([2]; Ethanol, 50° C., 1 week) was “Form P” and the XRPD after equilibration ([2]; Ethanol/water (v:v = 40:60) a.w. = 0.91, 25° C., 2 weeks) was “Form P”. For the same compound, the XRPD after equilibration ([2]; Ethanol/water (v:v = 40:60) a.w. = 0.91, 50° C., 1 week) was “Form P”, the XRPD after equilibration ([2]; Ethyl acetate, 25° C., 2 weeks) was “Form P” and the XRPD after equilibration ([2]; Ethyl acetate, 50° C., 1 week) was “Form P”. For the same compound, the XRPD after equilibration ([2]; Heptane, 25° C., 2 weeks) was “Form P”, the XRPD after equilibration ([2]; Heptane, 50° C., 1 week) was “Form P” and the XRPD after equilibration ([2]; Isopropyl acetate, 25° C., 2 weeks) was “Form P”. The XRPD after equilibration ([2]; Isopropyl acetate, 50° C., 1 week) was “Form P”, the XRPD after equilibration ([2]; MEK, 25° C., 2 weeks) was “Form P” and the XRPD after equilibration ([2]; MEK, 50° C., 1 week) was “Form P”. The XRPD after equilibration ([2]; MTBE, 25° C., 2 weeks) was “Form P”, the XRPD after equilibration ([2]; MTBE, 50° C., 1 week) was “Form P” and the XRPD after equilibration ([2]; Methanol, 25° C., 2 weeks) was “Form B + Form W”. The XRPD after equilibration ([2]; Methanol, 50° C., 1 week) was “Form P”, the XRPD after equilibration ([2]; NMP, 25° C., 2 weeks) was “Form Q” and the “Comments (appearance)” value ([2]; NMP, 50° C., 1 week, (500 mg/mL)) was “Clear solution”. For the same compound, the XRPD after equilibration ([2]; THF, 25° C., 2 weeks) was “Form P”, the “Comments (appearance)” value ([2]; THF, 50° C., 1 week, (250 mg/mL)) was “Clear solution” and the “Comments (appearance)” value ([2]; THF/water (v:v = 80:20) a.w. = 0.91, 50° C., 1 week, (500 mg/mL)) was “Clear solution”. The XRPD after equilibration ([2]; Toluene, 25° C., 2 weeks) was “Form P”, the XRPD after equilibration ([2]; Toluene, 50° C., 1 week) was “Form P” and the XRPD after equilibration ([2]; Water, 25° C., 2 weeks) was “Form P”. For the same compound, the XRPD after equilibration ([2]; Water, 50° C., 1 week) was “Form P”, the “Comments (crystallinity)” value ([3]; 1 min) was “No obvious change in crystallinity” and the XRPD ([3]; 1 min) was “Form P”. The “Comments (crystallinity)” value ([3]; 3 min) was “No obvious change in crystallinity”, the XRPD ([3]; 3 min) was “Form P” and the “Comments (crystallinity)” value ([3]; 5 min) was “No obvious change in crystallinity”. For the same compound, the XRPD ([3]; 5 min) was “Form P”.
